# Experimental data: US9321756B2, “Azole compounds as PIM inhibitors” (priority 2011, dated 2016)
# Assays:
# Assay type in all cases: biochemical
# [1] = target: full length recombinant Pim-1 (Homo sapiens (Human), UniProt P11309); test: Pim enzyme assay (HTRF, phosphorylation of biotinylated-BAD (S112) peptide), Pim-1; conditions: Pim-1 enzyme assay; read-out: Pim_1_IC50
# [2] = target: full length recombinant Pim-2 (Homo sapiens (Human), UniProt Q9P1W9); test: Pim enzyme assay (HTRF, phosphorylation of biotinylated-BAD (S112) peptide), Pim-2; conditions: Pim-2 enzyme assay; read-out: Pim2_IC50
# [3] = target: full length recombinant Pim-3 (Homo sapiens (Human), UniProt Q86V86); test: Pim enzyme assay (HTRF, phosphorylation of biotinylated-BAD (S112) peptide), Pim-3; conditions: Pim-3 enzyme assay; read-out: Pim3 IC50
# Text: Pim-3 was purchased from Millipore (UK).
# The phosphorylation of biotinylated-BAD (S112) peptide by full length recombinant Pim-1, Pim-2, or Pim-3 protein was detected with streptavidin:Allophycocyanin (APC) conjugate and a europium (Eu) labeled antibody directed against phosphorylated-BAD (S112). […] The fluorescence is directly proportional to the amount of phosphorylated BAD peptide present in the reaction.
# A reference compound was included on each assay plate in order to validate that plate; on one plate of every assay run, two additional reference compounds were included.
# The final buffer conditions were as follows: 60 mM Hepes, pH 7.0, 0.05% BSA, 2 mM DTT. Incubations were carried out at RT (22° C.) for 2 h for Pim-1, 1 h and 30 min for Pim-3, and 45 min for Pim-2. The reaction was then stopped by the addition of 3 mM EDTA, and fluorescence was measured by an HTRF® Rubystar microplate reader. For each plate, percent of control (POC) values were calculated for each well. Values for the IC50 IP were estimated using a standard 4-parameter logistic model.
# Chain of full length recombinant Pim-1 (P11309 whole entry): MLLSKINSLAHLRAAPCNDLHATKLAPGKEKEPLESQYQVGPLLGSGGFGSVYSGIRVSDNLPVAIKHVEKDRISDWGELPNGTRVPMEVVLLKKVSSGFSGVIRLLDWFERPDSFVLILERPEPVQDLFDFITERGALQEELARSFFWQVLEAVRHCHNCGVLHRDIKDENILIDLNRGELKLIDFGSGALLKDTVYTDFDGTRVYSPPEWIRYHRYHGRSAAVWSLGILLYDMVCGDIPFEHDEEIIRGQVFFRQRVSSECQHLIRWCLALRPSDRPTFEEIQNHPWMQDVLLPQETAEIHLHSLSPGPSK
# Chain of full length recombinant Pim-2 (Q9P1W9 whole entry): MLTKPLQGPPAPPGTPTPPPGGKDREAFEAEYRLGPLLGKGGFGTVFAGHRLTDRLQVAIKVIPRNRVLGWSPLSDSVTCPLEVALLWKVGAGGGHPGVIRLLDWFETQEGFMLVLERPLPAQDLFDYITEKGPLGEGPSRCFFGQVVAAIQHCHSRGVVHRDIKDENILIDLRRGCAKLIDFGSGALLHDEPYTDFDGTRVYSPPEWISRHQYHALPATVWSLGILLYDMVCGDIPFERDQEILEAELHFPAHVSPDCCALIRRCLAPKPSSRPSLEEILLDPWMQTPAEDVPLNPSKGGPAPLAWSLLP
structure (smiles),measurement,setting,value
"Nc1cc(-c2c[nH]c3ccc(-c4nnc(N)s4)cc23)ccn1 [Example 186, 4-(5-(5-amino-1,3,4-thiadiazol-2-yl)-1H-indol-3-yl)-2-pyridinamine]",IC50,[1],260 nM
same,IC50,[2],270 nM
same,IC50,[3],83.8 nM
"Nc1nnc(-c2ccc3[nH]cc(-c4cccc(NC5CCCCC5)n4)c3c2)s1 [Example 205, 6-(5-(5-amino-1,3,4-thiadiazol-2-yl)-1H-indol-3-yl)-N-cyclohexyl-2-pyridinamine]",IC50,[1],110 nM
same,IC50,[2],227 nM
same,IC50,[3],21.6 nM
"CNc1nnc(-c2ccc3[nH]cc(-c4ccncc4)c3c2)s1 [Example 219, N-methyl-5-(3-(4-pyridinyl)-1H-indol-5-yl)-1,3,4-thiadiazol-2-amine]",IC50,[1],551 nM
same,IC50,[2],686 nM
same,IC50,[3],204 nM
"CNc1nnc(-c2ccc3[nH]cc(-c4cccc(N)c4)c3c2)s1 [Example 221, 5-(3-(3-aminophenyl)-1H-indol-5-yl)-N-methyl-1,3,4-thiadiazol-2-amine]",IC50,[1],744 nM
same,IC50,[2],1490 nM
same,IC50,[3],158 nM
"Nc1nnc(-c2ccc3[nH]cc(-c4cccc(O)n4)c3c2)s1 [Example 196, 6-(5-(5-amino-1,3,4-thiadiazol-2-yl)-1H-indol-3-yl)-2-pyridinol]",IC50,[1],2070 nM
same,IC50,[2],> 3000 nM
same,IC50,[3],918 nM
"Cc1ccccc1-c1ccnc(-c2c[nH]c3ccc(-c4nnc(N)o4)cc23)n1 [Example 124, 5-(3-(4-(2-methylphenyl)-2-pyrimidinyl)-1H-indol-5-yl)-1,3,4-oxadiazol-2-amine]",IC50,[1],27.9 nM
same,IC50,[2],33.4 nM
same,IC50,[3],17.2 nM
"CNc1nnc(-c2ccc3[nH]cc(-c4cccc(-n5ccccc5=O)n4)c3c2)s1 [Example 238, 6′-(5-(5-(methylamino)-1,3,4-thiadiazol-2-yl)-1H-indol-3-yl)-2H-1,2′-bipyridin-2-one]",IC50,[1],712 nM
same,IC50,[2],856 nM
same,IC50,[3],197 nM
"Nc1nnc(-c2ccc3[nH]cc(-c4cncc(-c5ccc(F)cc5)n4)c3c2)o1 [Example 7, 5-(3-(6-(4-fluorophenyl)pyrazin-2-yl)-1H-indol-5-yl)-1,3,4-oxadiazol-2-amine]",IC50,[1],28.8 nM
same,IC50,[2],42.5 nM
same,IC50,[3],19.7 nM
"CNc1nnc(-c2ccc3[nH]cc(-c4cccc(OC(F)(F)F)c4)c3c2)s1 [Example 225, N-methyl-5-(3-(3-(trifluoromethoxy)phenyl)-1H-indol-5-yl)-1,3,4-thiadiazol-2-amine]",IC50,[1],2360 nM
same,IC50,[2],> 3000 nM
same,IC50,[3],416 nM
"CNc1nnc(-c2ccc3[nH]cc(-c4ccc(F)cc4F)c3c2)s1 [Example 23, 5-(3-(2,4-difluorophenyl)-1H-indol-5-yl)-N-methyl-1,3,4-thiadiazol-2-amine]",IC50,[1],423 nM
same,IC50,[2],1550 nM
same,IC50,[3],136 nM
"Nc1nnc(-c2ccc3[nH]cc(-c4cnn(CCN5CCOCC5)c4)c3c2)o1 [Example 81, 5-(3-(1-(2-(4-morpholinyl)ethyl)-1H-pyrazol-4-yl)-1H-indol-5-yl)-1,3,4-oxadiazol-2-amine]",IC50,[1],101 nM
same,IC50,[2],273 nM
same,IC50,[3],147 nM
"N#Cc1cccc(-c2c[nH]c3ccc(-c4nnc(N)s4)cc23)n1 [Example 183, 6-(5-(5-amino-1,3,4-thiadiazol-2-yl)-1H-indol-3-yl)-2-pyridinecarbonitrile]",IC50,[1],156 nM
same,IC50,[2],174 nM
same,IC50,[3],48.2 nM
"Nc1nnc(-c2ccc3[nH]cc(-c4cnc(N5CCOCC5)cn4)c3c2)s1 [Example 192, 5-(3-(5-(4-morpholinyl)-2-pyrazinyl)-1H-indol-5-yl)-1,3,4-thiadiazol-2-amine]",IC50,[1],908 nM
same,IC50,[2],2400 nM
same,IC50,[3],266 nM
"C[C@H]1CCCCN1c1nc(-c2c[nH]c3ccc(-c4nnc(N)s4)cc23)cs1 (stereo in doubt) [Example 184, 5-(3-(2-(2-methyl-1-piperidinyl)-1,3-thiazol-4-yl)-1H-indol-5-yl)-1,3,4-thiadiazol-2-amine]",IC50,[1],161 nM
same,IC50,[2],602 nM
same,IC50,[3],94.7 nM
"Oc1nnc(-c2ccc3[nH]cc(-c4ccc(F)cc4F)c3c2)s1 [Example 26, 5-(3-(2,4-difluorophenyl)-1H-indol-5-yl)-1,3,4-thiadiazol-2-ol]",IC50,[1],2000 nM
same,IC50,[2],> 3000 nM
same,IC50,[3],795 nM
"CNc1nnc(-c2ccc3[nH]cc(-c4cccc(-c5ccccc5)c4)c3c2)s1 [Example 22, 5-(3-(biphenyl-3-yl)-1H-indol-5-yl)-N-methyl-1,3,4-thiadiazol-2-amine]",IC50,[1],2800 nM
same,IC50,[2],> 3000 nM
same,IC50,[3],1470 nM
"CNc1nnc(-c2ccc3[nH]cc(-c4csc(-c5ccoc5)n4)c3c2)s1 [Example 240, 5-(3-(2-(3-furanyl)-1,3-thiazol-4-yl)-1H-indol-5-yl)-N-methyl-1,3,4-thiadiazol-2-amine]",IC50,[1],1520 nM
same,IC50,[2],2640 nM
same,IC50,[3],409 nM
"Nc1nnc(-c2ccc3[nH]cc(-c4cncc(C(=O)N5CCOCC5)c4)c3c2)o1 [Example 82, 5-(3-(5-(4-morpholinylcarbonyl)-3-pyridinyl)-1H-indol-5-yl)-1,3,4-oxadiazol-2-amine]",IC50,[1],2350 nM
same,IC50,[2],1780 nM
same,IC50,[3],2380 nM
"COCC(=O)Nc1cccc(CNc2nnc(-c3ccc4[nH]cc(-c5ccccc5F)c4c3)s2)c1 [Example 146, N-(3-(((5-(3-(2-fluorophenyl)-1H-indol-5-yl)-1,3,4-thiadiazol-2-yl)amino)methyl)phenyl)-2-methoxyacetamide]",IC50,[1],365 nM
same,IC50,[2],2510 nM
same,IC50,[3],540 nM
"CNc1nnc(-c2ccc3[nH]cc(-c4cccc(N5CCCCC5=O)n4)c3c2)s1 [Example 236, 1-(6-(5-(5-(methylamino)-1,3,4-thiadiazol-2-yl)-1H-indol-3-yl)-2-pyridinyl)-2-piperidinone]",IC50,[1],325 nM
same,IC50,[2],538 nM
same,IC50,[3],114 nM
"CC(C)(Nc1nnc(-c2ccc3[nH]cc(-c4ncccn4)c3c2)o1)c1ccccc1 [Example 52, N-(2-phenylpropan-2-yl)-5-(3-(pyrimidin-2-yl)-1H-indol-5-yl)-1,3,4-oxadiazol-2-amine 2,2,2-trifluoroacetate]",IC50,[1],70.1 nM
same,IC50,[2],271 nM
same,IC50,[3],40.3 nM
"CC(=O)Nc1cccc(CNc2nnc(-c3ccc4[nH]cc(-c5ccccc5F)c4c3)s2)c1 [Example 145, N-(3-(((5-(3-(2-fluorophenyl)-1H-indol-5-yl)-1,3,4-thiadiazol-2-yl)amino)methyl)phenyl)acetamide]",IC50,[1],308 nM
same,IC50,[2],2170 nM
same,IC50,[3],308 nM
"Brc1nnc(-c2ccc3[nH]cc(-c4cccc(N5CCOCC5)n4)c3c2)s1 [Example 27, 4-(6-(5-(5-bromo-1,3,4-thiadiazol-2-yl)-1H-indol-3-yl)pyridin-2-yl)morpholine]",IC50,[1],1310 nM
same,IC50,[2],> 3000 nM
same,IC50,[3],399 nM
"CCCCOc1cnc(-c2c[nH]c3ccc(-c4nnc(N)s4)cc23)cn1 [Example 193, 5-(3-(5-butoxy-2-pyrazinyl)-1H-indol-5-yl)-1,3,4-thiadiazol-2-amine]",IC50,[1],931 nM
same,IC50,[2],1550 nM
same,IC50,[3],392 nM
"COc1cncc(-c2c[nH]c3ccc(-c4nnc(N)s4)cc23)c1 [Example 199, 5-(3-(5-methoxy-3-pyridinyl)-1H-indol-5-yl)-1,3,4-thiadiazol-2-amine]",IC50,[1],268 nM
same,IC50,[2],618 nM
same,IC50,[3],165 nM
